# Square brackets hold non-standard residues; d marks the D form. Peptide text beside a SMILES is read from it. NMeY = CN[C@@H](Cc1ccc(O)cc1)C(=O)O; hLeu = CC(C)CC[C@H](N)C(=O)O; NMeA = CN[C@@H](C)C(=O)O; Nle = CCCC[C@H](N)C(=O)O; Orn = NCCC[C@H](N)C(=O)O
# Biological target: T1, PD-1/PD-L1 (Homo sapiens, UniProt Q15116)
# T1 construct: this kit uses ectodomains of PD-1 and PD-L1 that are expressed with orthogonal fusion tags (Tag-1 and Tag-2); purchased CisBio (currently Perkin-Elmer, Bedford, MA)
# Experiment: In vitro time-resolved FRET PD-1/PD-L1 binding assay (CisBio kit)
# Settings: CisBio PD-1/PD-L1 binding kit, TR FRET, 96-well; for EC50: serial dilutions in triplicate, NI = no inhibition at maximum concentration tested (* 5 μM, ** 50 μM), read-out: EC50 (Supplementary Table S1; inhibition of PD-1/PD-L1 binding by in vitro TR-FRET assay)
# Procedure: Commercial PD-1/PD-L1 binding assay kit (CisBio, currently Perkin-Elmer, Bedford, MA) for time resolve fluorescent energy transfer (FRET) was used to assess peptides binding to PD-1. The assay for peptide screening was performed in a 96-well format (normal pressure), starting with 4-fold serial dilutions of each peptide in triplicate. No-peptide triplicate wells were used to assess fluorescent energy transfer in the absence of inhibition, and no-PD-1/PD-L1 triplicate wells were used to assess the background fluorescent energy transfer in the absence of PD-1/PD-L1 complexes. More detailed concentration dependences were obtained for selected peptides. Only freshly dissolved peptides were used in the assay. Various QSAR (quantitative structure activity relationship) hypotheses were tested by synthesizing batches of 10–12 peptides. In total, over one hundred candidates in ten iterations were screened for their ability to inhibit in vitro PD-1/PD-L1 binding using the commercial PD-1/PD-L1 binding assay kit (CisBio, currently Perkin-Elmer). Briefly, this kit uses ectodomains of PD-1 and PD-L1 that are expressed with orthogonal fusion tags (Tag-1 and Tag-2). It also includes two antibodies to selectively interact with these tags. The antibody against one tag is labeled with fluorescent moiety, which serves as a donor, while the other antibody is labeled with fluorescent moiety, which serves as an acceptor in fluorescent resonance energy transfer (FRET). When the complex is formed and probed with both anti-Tag-1 and anti-Tag-2 antibodies, donor and acceptor are sufficiently close, and FRET can be detected in a time-resolved (TR) manner. Inhibitors of PD-1/PD-L1 interactions prevent complex formation, leading to a decrease in TR FRET in a concentration-dependent manner, as shown in Figure 2 for four representative peptide inhibitors. Initial fourfold dilutions are exemplified by data for peptides B5.11 and B5.6 (panels A and B); examples of the more detailed follow-up concentration dependences are shown for peptides B2.4 and B2.22 (panels C and D). The potency of the inhibitors is then characterized by IC50, a concentration that inhibits TR FRET by 50%, allowing for a facile comparison of different inhibitors (Figure 2E).
"IC50 (4-fold serial dilutions in triplicate, freshly dissolved peptides, read-out: IC50, inhibition of PD-1/PD-L1 binding (TR FRET assay))",EC50,Compound
0.5 µM,0.5 µM,CCCC[C@H](NC(=O)[C@@H](NC(=O)[C@H](CCCNC(=N)N)NC(C)=O)C(C)C)C(=O)N[C@H](C(=O)N[C@H](C(=O)N[C@H](C(=O)NCC(=O)N[C@@H](C)C(=O)N[C@@H](C)C(=O)N[C@@H](Cc1c[nH]c2ccccc12)C(=O)N[C@@H](CC(=O)O)C(=O)N[C@@H](Cc1ccc(O)cc1)C(=O)N[C@@H](CCCCN)C(=O)N[C@@H](Cc1ccc(O)cc1)C(N)=O)C(C)C)[C@@H](C)CC)C(C)C [B2.4] (Ac-RV[Nle]VIVGAAWDYKY-NH2)
,11 µM,CCCC[C@H](NC(C)=O)C(=O)N[C@H](C(=O)N[C@@H](CC(C)C)C(=O)N[C@H](C(=O)N[C@H](C(=O)N[C@H](C(=O)NCC(=O)N[C@@H](C)C(=O)N[C@@H](C)C(=O)N[C@@H](Cc1c[nH]c2ccccc12)C(=O)N[C@@H](CC(=O)O)C(=O)N[C@@H](Cc1ccc(O)cc1)C(=O)N[C@@H](CCCCN)C(=O)N[C@@H](CCCNC(=N)N)C(N)=O)C(C)C)[C@@H](C)CC)C(C)C)C(C)C [B2.5] (Ac-[Nle]VLVIVGAAWDYKR-NH2)
,4 µM,CCCC[C@H](NC(=O)[C@@H](NC(=O)[C@H](CC(C)C)NC(=O)[C@@H](NC(=O)[C@H](CCCNC(=N)N)NC(C)=O)C(C)C)C(C)C)C(=O)N[C@H](C(=O)NCC(=O)N[C@@H](C)C(=O)N[C@@H](C)C(=O)N[C@@H](Cc1c[nH]c2ccccc12)C(=O)N[C@@H](CC(=O)O)C(=O)N[C@@H](Cc1ccc(O)cc1)C(=O)N[C@@H](CCCCN)C(=O)N[C@@H](Cc1ccc(O)cc1)C(N)=O)C(C)C [B2.17] (Ac-RVLV[Nle]VGAAWDYKY-NH2)
,> 5 µM,CC(=O)N[C@@H](CCC(C)C)C(=O)N[C@H](C(=O)N[C@@H](CCC(C)C)C(=O)N[C@H](C(=O)NCC(=O)N[C@@H](C)C(=O)N[C@@H](C)C(=O)N[C@@H](Cc1c[nH]c2ccccc12)C(=O)N[C@@H](CC(=O)O)C(=O)N[C@@H](CCCNC(=N)N)C(=O)N[C@@H](CCCCN)C(=O)N[C@@H](Cc1ccc(O)cc1)C(N)=O)C(C)C)C(C)C [B3.20] (Ac-[hLeu]V[hLeu]VGAAWDRKY-NH2)
,> 5 µM,CC(=O)N[C@@H](CCC(C)C)C(=O)N[C@H](C(=O)N[C@@H](Cc1c[nH]c2ccccc12)C(=O)N[C@H](C(=O)NCC(=O)N[C@@H](C)C(=O)N[C@@H](CCCN)C(=O)N[C@@H](Cc1c[nH]c2ccccc12)C(=O)N[C@@H](CC(=O)O)C(=O)N[C@@H](CCCNC(=N)N)C(=O)N[C@@H](CCCCN)C(=O)N[C@@H](Cc1ccc(O)cc1)C(N)=O)C(C)C)C(C)C [B3.23] (Ac-[hLeu]VWVGA[Orn]WDRKY-NH2)
,> 5 µM,CCCC[C@H](N)C(=O)N[C@H](C(=O)N[C@H](C(=O)N[C@H](C(=O)NCC(=O)N[C@@H](C)C(=O)N[C@@H](C)C(=O)N[C@@H](Cc1c[nH]c2ccccc12)C(=O)N[C@@H](CC(=O)O)C(=O)N[C@@H](Cc1ccc(O)cc1)C(=O)N[C@@H](CCCCN)C(=O)N[C@@H](Cc1ccc(O)cc1)C(=O)O)C(C)C)[C@@H](C)CC)C(C)C [B4.2] (H-[Nle]VIVGAAWDYKY-OH; N-terminus and C-terminus assumed)
,> 5 µM,CCCC[C@H](NC(C)=O)C(=O)N[C@H](C(=O)N[C@H](C(=O)N[C@H](C(=O)NCC(=O)N[C@@H](C)C(=O)N[C@@H](C)C(=O)N[C@@H](Cc1c[nH]c2ccccc12)C(=O)N[C@@H](CC(=O)O)C(=O)N[C@@H](CCCNC(=N)N)C(=O)N[C@@H](CCCCN)C(=O)N[C@@H](Cc1ccc(O)cc1)C(N)=O)C(C)C)[C@@H](C)CC)C(C)C [B4.3] (Ac-[Nle]VIVGAAWDRKY-NH2)
,> 5 µM,CCCC[C@H](NC(=O)[C@@H](NC(=O)[C@@H](N)CCCNC(=N)N)C(C)C)C(=O)N[C@H](C(=O)N[C@@H](Cc1c[nH]c2ccccc12)C(=O)N[C@H](C(=O)NCC(=O)N[C@@H](C)C(=O)N[C@@H](C)C(=O)N[C@@H](Cc1c[nH]c2ccccc12)C(=O)N[C@@H](CC(=O)O)C(=O)N[C@@H](Cc1ccc(O)cc1)C(=O)N[C@@H](CCCCN)C(=O)N[C@@H](Cc1ccc(O)cc1)C(=O)O)C(C)C)C(C)C [B4.4] (H-RV[Nle]VWVGAAWDYKY-OH; N-terminus and C-terminus assumed)

# Second part, the compound before the results:
Compound,"IC50 (4-fold serial dilutions in triplicate, freshly dissolved peptides, read-out: IC50, inhibition of PD-1/PD-L1 binding (TR FRET assay))",EC50
CCCC[C@H](NC(C)=O)C(=O)N[C@H](C(=O)N[C@@H](CC(C)C)C(=O)N[C@H](C(=O)N[C@H](C(=O)N[C@H](C(=O)NCC(=O)N[C@@H](C)C(=O)N[C@@H](C)C(=O)N[C@@H](Cc1c[nH]c2ccccc12)C(=O)N[C@@H](CC(=O)O)C(=O)N[C@@H](CCCNC(=N)N)C(=O)N[C@@H](CCCCN)C(=O)N[C@@H](Cc1ccc(O)cc1)C(N)=O)C(C)C)[C@@H](C)CC)C(C)C)C(C)C [B2.16] (Ac-[Nle]VLVIVGAAWDRKY-NH2),,1 µM
CC(=O)N[C@@H](CCCNC(=N)N)C(=O)N[C@H](C(=O)N[C@@H](CCC(C)C)C(=O)N[C@H](C(=O)N[C@@H](CCC(C)C)C(=O)N[C@H](C(=O)NCC(=O)N[C@@H](C)C(=O)N[C@@H](C)C(=O)N[C@@H](Cc1c[nH]c2ccccc12)C(=O)N[C@@H](CC(=O)O)C(=O)N[C@@H](Cc1ccc(O)cc1)C(=O)N[C@@H](CCCCN)C(=O)N[C@@H](Cc1ccc(O)cc1)C(N)=O)C(C)C)C(C)C)C(C)C [B2.27] (Ac-RV[hLeu]V[hLeu]VGAAWDYKY-NH2),,1.8 µM
CC[C@H](C)[C@H](NC(=O)[C@@H](NC(=O)[C@H](CC(C)C)NC(=O)[C@@H](NC(=O)[C@H](CCCNC(=N)N)NC(C)=O)C(C)C)C(C)C)C(=O)N[C@H](C(=O)NCC(=O)N[C@@H](C)C(=O)N[C@@H](C)C(=O)N[C@@H](CCC(C)C)C(=O)N[C@@H](CC(=O)O)C(=O)N[C@@H](Cc1ccc(O)cc1)C(=O)N[C@@H](CCCCN)C(=O)N[C@@H](Cc1ccc(O)cc1)C(N)=O)C(C)C [B2.32] (Ac-RVLVIVGAA[hLeu]DYKY-NH2),,22 µM
CC(=O)N[C@@H](CCC(C)C)C(=O)N[C@H](C(=O)N[C@@H](CCC(C)C)C(=O)N[C@H](C(=O)NCC(=O)N[C@@H](C)C(=O)N[C@@H](C)C(=O)N[C@@H](Cc1c[nH]c2ccccc12)C(=O)N[C@@H](CC(=O)O)C(=O)N[C@@H](Cc1ccc(O)cc1)C(=O)N[C@@H](CCCCN)C(=O)N[C@@H](Cc1ccc(O)cc1)C(N)=O)C(C)C)C(C)C [B3.3] (Ac-[hLeu]V[hLeu]VGAAWDYKY-NH2),,35 µM
CC[C@H](C)[C@H](NC(=O)[C@@H](NC(=O)[C@H](CC(C)C)NC(C)=O)C(C)C)C(=O)N[C@H](C(=O)NCC(=O)N(C)[C@@H](C)C(=O)N[C@@H](C)C(=O)N[C@@H](Cc1c[nH]c2ccccc12)C(=O)N[C@@H](CC(=O)O)C(=O)N[C@@H](Cc1ccc(O)cc1)C(=O)N[C@@H](CCCCN)C(=O)N(C)[C@@H](Cc1ccc(O)cc1)C(N)=O)C(C)C [B3.10] (Ac-LVIVG[NMeA]AWDYK[NMeY]-NH2),,> 50 µM
CC(=O)N[C@@H](CCC(C)C)C(=O)N[C@H](C(=O)N[C@@H](Cc1c[nH]c2ccccc12)C(=O)N[C@H](C(=O)NCC(=O)N[C@@H](C)C(=O)N[C@@H](C)C(=O)N[C@@H](Cc1c[nH]c2ccccc12)C(=O)N[C@@H](CC(=O)O)C(=O)N[C@@H](CCCNC(=N)N)C(=O)N[C@@H](CCCCN)C(=O)N[C@@H](Cc1ccc(O)cc1)C(N)=O)C(C)C)C(C)C [B3.21] (Ac-[hLeu]VWVGAAWDRKY-NH2),,> 5 µM
CC[C@H](C)[C@H](NC(=O)[C@@H](NC(=O)[C@H](CC(C)C)NC(C)=O)C(C)C)C(=O)N[C@H](C(=O)NCC(=O)N[C@@H](C)C(=O)N[C@@H](CCCN)C(=O)N[C@@H](Cc1c[nH]c2ccccc12)C(=O)N[C@@H](CC(=O)O)C(=O)N[C@@H](Cc1ccc(O)cc1)C(=O)N[C@@H](CCCCN)C(=O)N[C@@H](Cc1ccc(O)cc1)C(N)=O)C(C)C [B3.22] (Ac-LVIVGA[Orn]WDYKY-NH2),,> 5 µM
CCCC[C@H](NC(C)=O)C(=O)N[C@H](C(=O)N[C@H](C(=O)N[C@H](C(=O)NCC(=O)N[C@@H](C)C(=O)N[C@@H](C)C(=O)N[C@@H](Cc1c[nH]c2ccccc12)C(=O)N[C@@H](CC(=O)O)C(=O)N[C@@H](Cc1ccc(O)cc1)C(=O)N[C@@H](CCCCN)C(=O)N[C@@H](Cc1ccc(O)cc1)C(N)=O)C(C)C)[C@@H](C)CC)C(C)C [B4.1] (Ac-[Nle]VIVGAAWDYKY-NH2),,> 5 µM
CCCC[C@H](NC(=O)[C@@H](NC(=O)[C@@H](N)CCCNC(=N)N)C(C)C)C(=O)N[C@H](C(=O)N[C@H](C(=O)N[C@H](C(=O)NCC(=O)N[C@@H](C)C(=O)N[C@@H](C)C(=O)N[C@@H](Cc1c[nH]c2ccccc12)C(=O)N[C@@H](CC(=O)O)C(=O)N[C@@H](Cc1ccc(O)cc1)C(=O)N[C@@H](CCCCN)C(=O)O)C(C)C)[C@@H](C)CC)C(C)C [B4.5] (H-RV[Nle]VIVGAAWDYK-OH; N-terminus and C-terminus assumed),,> 5 µM

# Reference: PMC11118832 (Biomolecules, 2024)
